In PubChem BioAssay AID280 (DTP/NCI, 2004) one finds T/C data, which are given here for 13 compounds.

The subject of the test is nude mice, LOX melanoma ip, survival T/C. Nature of the test: NCI In Vivo Anticancer Drug Screen. Data for tumor model Human Amelanotic Melanoma (LOX) (intraperitoneal) in NU/NU BALB/C (nude) mice. The settings on record: endpoint: median survival time, higher = longer survival. As to the method: The antitumor activity of compounds was measured in mice bearing transplantable tumors. Survival or tumor size were measured and the results are expressed as the measurement made in the treated group (T) divided by the measurement made in the vehicle treated control group (C). The tumor model used in this assay is Human Amelanotic Melanoma (LOX) (intraperitoneal) in NU/NU BALB/C (nude) mice

[1] abbreviates: dose: 75.0 mg/kg/injection, schedule: Q04DX003 (ip), vehicle: saline with Tween-80.
[2] abbreviates: dose: 150.0 mg/kg/injection, schedule: Q04DX003 (ip), vehicle: saline with Tween-80.
Where [3] appears, read: dose: 60.0 mg/kg/injection, schedule: Q04DX003 (ip), vehicle: saline.

Structures are written as SMILES. Several values for one entry are separate records, joined by “and”; a condition that tells them apart may be missing. Identical values can stand only once. Inconclusive results and toxic doses are left out.

Turning to `[Na+]`, the T/C was 104 % of control (dose: 75.0 mg/kg/injection, schedule: Q04DX003 (ip), vehicle: water); 95 % of control (dose: 150.0 mg/kg/injection, schedule: Q04DX003 (ip), vehicle: water); 108 % of control (dose: 300.0 mg/kg/injection, schedule: Q04DX003 (ip), vehicle: water); 99 % of control (dose: 1200.0 mg/kg/injection, schedule: Q04DX003 (ip), vehicle: water).

`O=C1C2=C(C(=O)c3cnccc31)C1C=CC2CC1` (stereo not given): the T/C (dose: 25.0 mg/kg/injection, schedule: Q04DX003 (ip), vehicle: DMSO) is 93 % of control.

For `COC1C(O)CC(OC2CC(Oc3cc4cc5c(c(O)c4c(O)c3C)C(=O)[C@@H](OC3CC(OC4CC(OC6CC(C)(O)C(OC(C)=O)C(C)O6)C(O)C(C)O4)C(O)C(C)O3)[C@H]([C@H](OC)C(=O)[C@@H](O)[C@@H](C)O)C5)OC(C)C2OC(C)=O)OC1C` (stereo not given in full), the T/C reads like this: (dose: 0.15 mg/kg/injection, schedule: Q04DX003 (ip), vehicle: Klucel (hydroxypropylcellulose) (HPC)) 116 % of control; (dose: 0.3 mg/kg/injection, schedule: Q04DX003 (ip), vehicle: Klucel (hydroxypropylcellulose) (HPC)) 314 % of control; (dose: 0.6 mg/kg/injection, schedule: Q04DX003 (ip), vehicle: Klucel (hydroxypropylcellulose) (HPC)) 198 % of control.

Take `O=CC(O)C(O)C(O)C(O)CO` (stereo not given): the T/C was 112 % of control and 99 % of control (dose: 75.0 mg/kg/injection, schedule: Q04DX003 (ip), vehicle: saline); 107 % of control and 98 % of control (dose: 150.0 mg/kg/injection, schedule: Q04DX003 (ip), vehicle: saline); 102 % of control and 106 % of control (dose: 300.0 mg/kg/injection, schedule: Q04DX003 (ip), vehicle: saline); 95 % of control (dose: 600.0 mg/kg/injection, schedule: Q04DX003 (ip), vehicle: saline); 98 % of control and 99 % of control (dose: 1200.0 mg/kg/injection, schedule: Q04DX003 (ip), vehicle: saline).

`S=C(NCNC(=S)c1ccncc1)c1ccncc1`: the T/C under setting [1] is 104 % of control; the T/C under setting [2] was 103 % of control; the T/C (dose: 300.0 mg/kg/injection, schedule: Q04DX003 (ip), vehicle: saline with Tween-80) is 106 % of control; the T/C (dose: 600.0 mg/kg/injection, schedule: Q04DX003 (ip), vehicle: saline with Tween-80) is 87 % of control.

With `CO[C@@]12[C@@H]3N[C@@H]3CN1C1=C(C(=O)C(NCC3CCCO3)=C(C)C1=O)[C@@H]2COC(N)=O` (stereo not given in full), the T/C reads like this: (dose: 12.5 mg/kg/injection, schedule: Q04DX003 (ip), vehicle: distilled water + Tween-80) 154 % of control; (dose: 25.0 mg/kg/injection, schedule: Q04DX003 (ip), vehicle: distilled water + Tween-80) 160 % of control; (dose: 50.0 mg/kg/injection, schedule: Q04DX003 (ip), vehicle: distilled water + Tween-80) 215 % of control.

For the compound `c1ccc([Te][Te]c2ccccc2)cc1`, the T/C is 102 % of control (dose: 37.5 mg/kg/injection, schedule: Q04DX003 (ip), vehicle: saline with Tween-80); 92 % of control under setting [1]; 112 % of control under setting [2].

For `Cc1cc2c(=O)cc(-c3ccccc3)oc2c(C(=O)O)c1C`, the T/C runs as follows: (dose: 62.5 mg/kg/injection, schedule: Q04DX003 (ip), vehicle: saline with Tween-80) 95 % of control; (dose: 125.0 mg/kg/injection, schedule: Q04DX003 (ip), vehicle: saline with Tween-80) 94 % of control; (dose: 250.0 mg/kg/injection, schedule: Q04DX003 (ip), vehicle: saline with Tween-80) 90 % of control.

For the compound `CCOC(=O)N(C)N=NC`, the T/C (dose: 7.5 mg/kg/injection, schedule: Q04DX003 (ip), vehicle: saline) was 108 % of control and 109 % of control; the T/C (dose: 15.0 mg/kg/injection, schedule: Q04DX003 (ip), vehicle: saline) was 107 % of control and 114 % of control (2×); the T/C (dose: 30.0 mg/kg/injection, schedule: Q04DX003 (ip), vehicle: saline) was 121 % of control; the T/C under setting [3] was 194 % of control; the T/C (dose: 120.0 mg/kg/injection, schedule: Q04DX003 (ip), vehicle: saline) is 172 % of control and 191 % of control and 205 % of control.

As to `N[C@@H](Cc1ccc(N(CCCl)CCCl)cc1)C(=O)O`, the T/C was 155 % of control (dose: 1.0 mg/kg/injection, schedule: Q01DX005 (ip), vehicle: water); 166 % of control (dose: 1.0 mg/kg/injection, schedule: Q01DX015 (ip), vehicle: water); 258 % of control (dose: 2.0 mg/kg/injection, schedule: Q01DX005 (ip), vehicle: water); 218 % of control (dose: 2.0 mg/kg/injection, schedule: Q01DX015 (ip), vehicle: water); 171 % of control (dose: 2.5 mg/kg/injection, schedule: Q01DX001 (ip), vehicle: water); 162 % of control (dose: 2.5 mg/kg/injection, schedule: Q04DX003 (ip), vehicle: water). In addition, the T/C is 344 % of control (dose: 4.0 mg/kg/injection, schedule: Q01DX005 (ip), vehicle: water); 344 % of control (dose: 4.0 mg/kg/injection, schedule: Q01DX015 (ip), vehicle: water); 188 % of control (dose: 5.0 mg/kg/injection, schedule: Q01DX001 (ip), vehicle: water); 241 % of control (dose: 5.0 mg/kg/injection, schedule: Q04DX003 (ip), vehicle: water); 111 % of control and 203 % of control (dose: 6.0 mg/kg/injection, schedule: Q04DX003 (ip), vehicle: saline); 344 % of control (dose: 8.0 mg/kg/injection, schedule: Q01DX005 (ip), vehicle: water). Besides, the T/C is, setting by setting: (dose: 9.0 mg/kg/injection, schedule: Q04DX003 (ip), vehicle: saline) 122 % of control and 203 % of control; (dose: 10.0 mg/kg/injection, schedule: Q01DX001 (ip), vehicle: water) 344 % of control; (dose: 10.0 mg/kg/injection, schedule: Q04DX003 (ip), vehicle: water) 344 % of control; (dose: 20.0 mg/kg/injection, schedule: Q01DX001 (ip), vehicle: water) 344 % of control; (dose: 20.0 mg/kg/injection, schedule: Q04DX003 (ip), vehicle: water) 97 % of control.

For `COC(=O)c1ccc(N=NN(C)COC(C)=O)cc1`, the T/C is, setting by setting: (dose: 30.0 mg/kg/injection, schedule: Q04DX003 (ip), vehicle: Klucel (hydroxypropylcellulose) (HPC)) 118 % of control; (dose: 51.8 mg/kg/injection, schedule: Q04DX003 (ip), vehicle: Klucel (hydroxypropylcellulose) (HPC)) 175 % of control; (dose: 86.4 mg/kg/injection, schedule: Q04DX003 (ip), vehicle: Klucel (hydroxypropylcellulose) (HPC)) 193 % of control; (dose: 120.0 mg/kg/injection, schedule: Q04DX003 (ip), vehicle: Klucel (hydroxypropylcellulose) (HPC)) 193 % of control; (dose: 144.0 mg/kg/injection, schedule: Q04DX003 (ip), vehicle: Klucel (hydroxypropylcellulose) (HPC)) 262 % of control; (dose: 240.0 mg/kg/injection, schedule: Q04DX003 (ip), vehicle: Klucel (hydroxypropylcellulose) (HPC)) 220 % of control and 237 % of control.

As to `CN=C(NC#N)NCCSCc1nc[nH]c1C`, the T/C by setting is: (dose: 75.0 mg/kg/injection, schedule: Q04DX003 (ip), vehicle: Klucel (hydroxypropylcellulose) (HPC)) 98 % of control; (dose: 150.0 mg/kg/injection, schedule: Q04DX003 (ip), vehicle: Klucel (hydroxypropylcellulose) (HPC)) 98 % of control; (dose: 300.0 mg/kg/injection, schedule: Q04DX003 (ip), vehicle: Klucel (hydroxypropylcellulose) (HPC)) 101 % of control.

As to `O=P1(N(CCCl)CCCl)NCCCO1` (stereo not given), the T/C was 111 % of control (dose: 40.0 mg/kg/injection, schedule: Q04DX003 (ip), vehicle: saline); 115 % of control under setting [3]; 101 % of control (dose: 90.0 mg/kg/injection, schedule: Q04DX003 (ip), vehicle: saline).
